According to patent US7655688B2, “Fused cyclic succinimide compounds and analogs thereof, modulators of nuclear hormone receptor function” (Bristol-Myers Squibb Company, priority 2001, dated 2010):
Like-named read-outs stand apart in the source and are kept apart here.

Tests used:
AR [1] = target: T1, AR (Rattus norvegicus, UniProt P15207); settings: castrated rats
T1 sequence (P15207 1-902): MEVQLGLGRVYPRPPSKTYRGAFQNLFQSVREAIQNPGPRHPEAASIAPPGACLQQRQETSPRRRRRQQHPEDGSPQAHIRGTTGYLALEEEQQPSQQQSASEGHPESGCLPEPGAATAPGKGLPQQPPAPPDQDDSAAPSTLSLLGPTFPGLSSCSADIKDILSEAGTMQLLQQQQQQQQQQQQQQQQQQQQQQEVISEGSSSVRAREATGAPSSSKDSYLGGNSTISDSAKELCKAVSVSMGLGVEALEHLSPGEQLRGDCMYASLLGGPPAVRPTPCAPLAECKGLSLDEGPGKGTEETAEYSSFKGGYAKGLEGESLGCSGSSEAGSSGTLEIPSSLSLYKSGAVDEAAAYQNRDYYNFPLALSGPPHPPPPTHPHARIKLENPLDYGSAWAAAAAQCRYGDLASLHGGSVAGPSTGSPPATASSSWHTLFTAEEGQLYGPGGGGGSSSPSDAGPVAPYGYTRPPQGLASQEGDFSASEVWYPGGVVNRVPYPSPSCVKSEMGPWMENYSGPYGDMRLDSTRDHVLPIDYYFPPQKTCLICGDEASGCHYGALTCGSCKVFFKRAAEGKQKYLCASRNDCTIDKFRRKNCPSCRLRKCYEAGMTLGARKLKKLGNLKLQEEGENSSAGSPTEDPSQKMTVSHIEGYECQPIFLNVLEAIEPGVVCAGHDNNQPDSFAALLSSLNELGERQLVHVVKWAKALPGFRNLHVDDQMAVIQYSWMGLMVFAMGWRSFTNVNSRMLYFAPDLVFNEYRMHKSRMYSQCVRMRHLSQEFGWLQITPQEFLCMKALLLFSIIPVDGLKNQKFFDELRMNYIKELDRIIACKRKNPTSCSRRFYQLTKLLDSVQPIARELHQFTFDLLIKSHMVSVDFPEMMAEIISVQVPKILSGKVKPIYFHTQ
Text: The activity of compounds of the present invention as AR agonists was investigated in an immature male rat model, a recognized test of anabolic effects in muscle and sustaining effects in sex organs for a given compound, as described in L. G. Hershberger et al., Proc. Soc. […] Nem.
The basis of this assay lies in the well-defined action of androgenic agents on the maintenance and growth of muscle tissues and sexual accessory organs in animals and man. […] J. Anat. […] Ital. Biol. Sper. […] II. […] Ital. Biol. Sper. […] As described above, the effects of androgens on maintenance of male sexual accessory organs, such as the prostate and seminal vesicles, is well described. Castration results in rapid involution and atrophy of the prostate and seminal vesicles. This effect can be reversed by exogenous addition of androgens. Since both the levator ani muscle and the male sex organs are the tissues most responsive to the effects of androgenic agents, this model is used to determine the androgen dependent reversal of atrophy in the levator ani muscle and the sex accessory organs in immature castrated rats. Sexually mature rats (200-250 g, 6-8 weeks-old, Sprague-Dawley, Harlan) were acquired castrated from the vendor (Taconic). The rats were divided into groups and treated daily for 7 to 14 days with one of the following: • 1. Control vehicle • 2. […]

AR [2] = target: T1, AR
[3] = test system: GR induced AP-1 transrepression; assay: In vitro assay to measure GR induced AP-1 transrepression (luciferase reporter, A549 cells); type: cell-based; settings: concentration of ≦10 μM; 10 ng/ml PMA; typical value
Description: The AP-1 assay is a cell based luciferase reporter assay. A549 cells, which contain endogenous glucocorticoid receptor, were stably transfected with an AP-1 DNA binding site attached to the luciferase gene. Cells are then grown in RPMI+10% fetal calf serum (charcoal-treated)+Penicillin/Streptomycin with 0.5 mg/ml geneticin. Cells are plated the day before the assay at approximately 40000 cells/well. On assay day, the media is removed by aspiration and 20 μl assay buffer (RPMI without phenol red+10% FCS (charcoal-treated)+Pen/Strep) is added to each well. At this point either 20 μl assay buffer (control experiments), the compounds of the present invention (“test compounds”) (dissolved in DMSO and added at varying concentrations) or dexamethasome (100 nM in DMSO, positive control) are added to each well. The plates are then pre-incubated for 15 minutes at 37° C., followed by stimulation of the cells with 10 ng/ml PMA. The plates are then incubated for 7 hrs at 37° C. after which 40 μl luciferase substrate reagent is added to each well. Activity is measured by analysis in a luminometer as compared to control experiments treated with buffer or dexamethasome. […] The control, dexamethasone, at a concentration of ≦10 μM typically suppresses activity by 65%.

Row | SMILES | EC50 (increase in organ weight) (AR [1]; dosing for 3 days) [mg] | potency relative to free T (AR [1]; organ weight) | ED80 (organ weight increase) (AR [2]; immature castrated rat model) [mg] | EC50 (increase in organ weight) (AR [2]; immature castrated rats, dosing for 3 days) [mg] | potency relative to free T (AR [2]; immature castrated rats, organ weight) | suppression of activity (% inhibition of the reporter system vs buffer control with PMA alone) [3] [%]
1 | CCC(=O)O[C@H]1CC[C@H]2[C@@H]3CCC4=CC(=O)CC[C@]4(C)[C@H]3CC[C@]12C [TP, Testosterone Propionate] | ~0.03 | 10-30 fold | 0.1 | ~0.03 | 10-30 fold | 
2 | C[C@@H]1C[C@H]2[C@@H]3CCC4=CC(=O)C=C[C@]4(C)[C@@]3(F)[C@@H](O)C[C@]2(C)[C@@]1(O)C(=O)CO [dexamethasone] |  |  |  |  |  | 65
